Test results published in US10780069B2, “Use of GC-1 in transplant related population” (University of Pittsburgh—Of the Commonwealth System of …, priority 2017, dated 2020).
“Also recorded” adds a separate entry of the source.

Key:
[1] = test system: hepatocytes; assay: Partial hepatectomy after pretreatment with T3 or GC-1 supplemented diet; assay type: in vivo, mice
Procedure: To label dividing hepatocytes, BrdU (5-bromodeoxyuridine) dissolved in drinking water (1 mg/ml) was given to all animals throughout the experiment period. The animals were given food and water ad libitum with a 12-hour light/dark daily cycle.
After 7 days of receiving T3 supplemented diet (n=3) or GC-1 diet (n=3) or standard basal mouse chow (n=3), C57BL/6 male mice underwent partial hepatectomy as described previously (Tan et al. (2006) Gastroenterology 131, 1561-1572). Anesthesia was provided with inhaled Isoflurane. The animals were sacrificed 24 hours post hepatectomy, after Isoflurane anesthesia and cervical dislocation. Serum and liver tissue were harvested for further processing.
Four micron liver sections were analyzed by immunohistochemistry for β-Catenin (BD Biosciences, San Jose, Calif.), Cyclin-D1 (Thermo-Scientific, Fremont, Calif.) and PCNA (Santa Cruz Biotechnology, Dallas, Tex.). Briefly, formalin-fixed sections were deparaffinized in graded xylene and alcohol. Endogenous peroxidase was inactivated using 3% hydrogen peroxide (Sigma). For β-Catenin, Cyclin-D1 staining, slides were microwaved in Citrate buffer followed by blocking with Superblock for 10 minutes. Sections were then incubated with secondary anti-mouse (for β-catenin) or anti-rabbit (for Cyclin-D1) horseradish peroxidase-conjugated antibody for 30 minutes.
Bromodeoxyuridine (BrdU) was stained with mouse antibody (Becton Dickinson) as previously described (Fanti et al. (2014) Hepatology 59, 2309-2320). Briefly, tissue sections were deparaffinized, exposed to 0.3% hydrogen peroxide in deionized water for 10 minutes to block endogenous peroxidase, treated with 2N HCl, incubated with trypsin 0.1% for 20 minutes and then with normal goat serum for 20 minutes at room temperature. Sections were then incubated overnight in cold room with anti-BrdU monoclonal antibody, followed by biotinylated goat anti-mouse IgG. DAB kit was then applied, and sections were counterstained with hematoxylin. A small segment of intestine was included from each mouse as a positive control for the staining. For quantification of BrdU staining, at least 10 high power fields (400× or 600×) fields each from at least three biological replicates were counted as indicated in the figures. Statistical analysis was performed as described below.

[2] = test system: β-catenin-TCF4 reporter activity in Hep3B cells (wild-type CTNNB1); assay: TopFlash reporter assay in Hep3B cells; assay type: cell-based, human; details: 7 μM GC-1 (methods: 5-7 μM, 24 hours), vs DMSO
Source text: (§1) Three liver tumor cell lines Hep3B, HepG2 and Snu-398 cells were obtained from ATCC (Manassas, Va.). Cells were transfected simultaneously with Renilla reniformis luciferase (pRL-TK; Promega, Madison, Wis.) as a transfection control and TopFlash firefly luciferase plasmids (Upstate Biotechnology, Lake Placid, N.Y.), which contains three copies of the Tcf/Lef sites upstream of a thymidine kinase (TK) promoter and the firefly luciferase gene using Lipofectamine 2000 (Life Technologies). Twenty-four hours after transfection, cells were treated with either DMSO (Fisher Scientific) or 5-7 μM GC-1 (Medchem Express, Monmouth Junction, N.J.) for 24 hours. Lysates were harvested using the Dual-Luciferase Reporter Assay System (Promega, Madison, Wis.). Firefly luciferase signals were normalized to Renilla luciferase and ratio between groups compared by student's t-test to determine significance. P<0.05 was considered significant.

[3] = test system: β-catenin-TCF4 reporter activity in Snu-398 cells (point-mutant β-catenin); assay: TopFlash reporter assay in Snu-398 cells; assay type: cell-based, human; details: 7 μM GC-1 (methods: 5-7 μM, 24 hours), vs DMSO
Source text: as §1

[4] = test system: β-catenin-TCF4 reporter activity in HepG2 cells (exon-3-deletion mutant of CTNNB1); assay: TopFlash reporter assay in HepG2 cells; assay type: cell-based, human; details: (methods: 5-7 μM, 24 hours), vs DMSO
Source text: as §1

With `Cc1cc(OCC(=O)O)cc(C)c1Cc1ccc(O)c(C(C)C)c1` [GC-1, Sobetirome] the “nuclear cyclin-D1 immunohistochemistry at 24 hours after hepatectomy” value ([1]; 24 hours after hepatectomy) was “panlobular distribution”, the “BrdU positive hepatocyte nuclei at 24 hours after hepatectomy” value ([1]; diet pretreatment, vs basal diet) was “pronounced increase” and the “increase in hepatocyte proliferation over the 24-hour liver regeneration period” value ([1]; pre-hepatectomy vs 24 hour-post hepatectomy, same animals, all three mice) was “around 2 fold”. For the same compound, the “cyclin-D1 immunohistochemistry in resected lobes at time of hepatectomy” value ([1]; pretreatment livers) was “expansion of cyclin-D1 positive hepatocytes in the midzonal area”, the “BrdU-positive hepatocytes in resected lobes at time of hepatectomy” value ([1]; seven-day pretreatment, vs basal diet) was “increased BrdU-positive hepatocytes” and the “TopFlash luciferase reporter activity” value [2] was “no significant effect; also recorded: insignificant differences”. The “TopFlash luciferase reporter activity” value [3] was “no significant effect; also recorded: insignificant differences” and the “TopFlash luciferase reporter activity” value [4] was “no significant effect; also recorded: insignificant differences”.
